TGI data for 13 molecules are collected here from PubChem BioAssay (NCI).

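48-hour exposure; five concentrations; linearly interpolated endpoints. Definition used: TGI = concentration required for complete inhibition of growth.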

Test systems include 786-0 renal; A498 renal; A549 NSCLC; BT-549 breast; HT29 colon; NCI-H460 lung; RXF 393 renal; SK-MEL-2 melanoma; SNB-75 CNS; T-47D breast; HCC-2998 colon.
Holding throughout (assay): growth of human tumour cells (NCI), 48 h

In the case of `Cc1ccc(C)c(NC(=O)C(Cc2c[nH]c3ccccc23)NC(=O)OCc2ccccc2)c1` (configuration not stated), the TGI in the experiment with 786-0 renal was 39.3 µM; with A498 renal, more than 100 µM; with A549 NSCLC, 26.1 µM; in the experiment with BT-549 breast, 44.8 µM; with HT29 colon it was 45.1 µM; in the experiment on NCI-H460 lung, 44 µM. In addition, the TGI with RXF 393 renal turned out to be 22 µM; in the experiment with SK-MEL-2 melanoma it was 45.9 µM; in the experiment on SNB-75 CNS, 27.9 µM; with T-47D breast it was 38 µM.
With `CC(=O)OC1COC(Nn2c(=O)[nH]c3ccccc3c2=O)C(OC(C)=O)C1OC(C)=O` (configuration not stated), the TGI in the experiment on 786-0 renal, in the experiment on A498 renal, in the experiment on A549 NSCLC, in the experiment with BT-549 breast, in the experiment on HT29 colon and in the experiment with NCI-H460 lung was more than 100 µM each time. The TGI with SK-MEL-2 melanoma, in the experiment on SNB-75 CNS and in the experiment with T-47D breast was more than 100 µM each time.
Consider `Cc1nc(C)c(N2CCN(C#N)CC2)c(=O)[nH]1`, for which the TGI with 786-0 renal, in the experiment with A498 renal, in the experiment on A549 NSCLC, with BT-549 breast, in the experiment with HCC-2998 colon and in the experiment on HT29 colon was more than 100 µM in each case. The TGI in the experiment on NCI-H460 lung, with RXF 393 renal, in the experiment with SNB-75 CNS and in the experiment on T-47D breast was more than 100 µM each time.
Take `CCOP(=O)(OCC)/C(C#N)=C/c1c(C)[nH]c2ccccc12`: the TGI in the experiment with 786-0 renal, in the experiment with A498 renal, with A549 NSCLC, with BT-549 breast, in the experiment on HCC-2998 colon and in the experiment on HT29 colon was more than 100 µM in each case. For the same molecule, the TGI in the experiment on NCI-H460 lung, in the experiment on RXF 393 renal, in the experiment with SNB-75 CNS and in the experiment on T-47D breast was more than 100 µM each time.
Consider `COc1cccc(-n2c(N)c(-c3nc4cc(C(F)(F)F)ccc4s3)c3ccc([N+](=O)[O-])cc3c2=O)c1`, for which the TGI with 786-0 renal, in the experiment with A498 renal, in the experiment with A549 NSCLC, in the experiment on BT-549 breast, in the experiment with HCC-2998 colon and in the experiment on HT29 colon was more than 100 µM each time. Further, the TGI in the experiment with NCI-H460 lung, with SK-MEL-2 melanoma, with SNB-75 CNS and with T-47D breast was more than 100 µM throughout.
As for `COc1c(O)cc(C(=O)O[C@@H]2Cc3c(O)cc(O)cc3O[C@@H]2c2cc(O)c(O)c(O)c2)cc1O`, the TGI with 786-0 renal is 33.8 µM; in the experiment on A498 renal, more than 100 µM; in the experiment with A549 NSCLC, 51.2 µM; in the experiment with BT-549 breast, 65.2 µM; in the experiment with HCC-2998 colon, more than 100 µM; in the experiment on HT29 colon, 37.1 µM. Also, the TGI was 66.7 µM in the experiment on NCI-H460 lung, 37.2 µM in the experiment on RXF 393 renal, more than 100 µM in the experiment on SK-MEL-2 melanoma and 86 µM in the experiment on T-47D breast.
Consider `COc1cc(OC)nc(Nc2c(C#N)c3nc4ccccc4n3c3ccccc23)n1`, for which the TGI was 43.6 µM in the experiment with 786-0 renal; more than 100 µM with A549 NSCLC; 63 µM in the experiment with BT-549 breast; more than 100 µM in the experiment on HCC-2998 colon; more than 100 µM in the experiment with HT29 colon; more than 100 µM in the experiment on NCI-H460 lung. Besides, the TGI was 99.2 µM in the experiment on RXF 393 renal, 71.1 µM in the experiment with SK-MEL-2 melanoma, 37.6 µM in the experiment with SNB-75 CNS and more than 100 µM with T-47D breast.
With `CP(C)(=S)P(C)(C)=S`, the TGI in the experiment on 786-0 renal, in the experiment with A549 NSCLC, in the experiment on BT-549 breast, in the experiment with HCC-2998 colon, in the experiment on HT29 colon and in the experiment on NCI-H460 lung was more than 100 µM each time. Moreover, the TGI in the experiment on RXF 393 renal, in the experiment with SK-MEL-2 melanoma, in the experiment with SNB-75 CNS and with T-47D breast was more than 100 µM in each case.
As to `CN1CCN(c2ccc(-n3cc(C(=O)O)c(=O)c4cc(F)c(N5CCN(C)CC5)cc43)nc2)CC1`, the TGI in the experiment on 786-0 renal, in the experiment with A498 renal, with A549 NSCLC, with BT-549 breast, in the experiment on HT29 colon and in the experiment with NCI-H460 lung was more than 100 µM each time. Besides, the TGI in the experiment on RXF 393 renal, in the experiment on SNB-75 CNS and in the experiment with T-47D breast was more than 100 µM throughout.
On to `N#CC(c1cc(Cl)ncn1)c1nc2ccccc2s1` (configuration not stated), for which the TGI in the experiment on 786-0 renal is 29.5 µM; with A498 renal, 68.6 µM; in the experiment with A549 NSCLC, more than 100 µM; with BT-549 breast it was 15.2 µM; with HT29 colon, 23.6 µM; in the experiment on NCI-H460 lung, more than 100 µM. Further, the TGI in the experiment on RXF 393 renal was 42.5 µM; in the experiment on SNB-75 CNS, 28.1 µM; in the experiment on T-47D breast, more than 100 µM.
In the case of `COC(=O)CCC(=O)c1ccc2c(c1)CC1(C2)Cc2ccc3c(c2C1)CCCC3=O` (configuration not stated), the TGI was more than 85.2 µM in the experiment on 786-0 renal; 82.8 µM in the experiment on A498 renal; more than 100 µM in the experiment on A549 NSCLC; more than 93.9 µM with HCC-2998 colon; more than 76.9 µM with HT29 colon; more than 100 µM with NCI-H460 lung. The TGI was 97.4 µM in the experiment with RXF 393 renal, 36.9 µM with SK-MEL-2 melanoma, more than 100 µM in the experiment on SNB-75 CNS and more than 100 µM in the experiment with T-47D breast.
Regarding `O=C1OC(c2ccccc2)N/C1=C\c1ccc2c(c1)OCO2` (configuration not stated), the TGI in the experiment on 786-0 renal, with A549 NSCLC, in the experiment on BT-549 breast, in the experiment with HCC-2998 colon, with HT29 colon and in the experiment with NCI-H460 lung was more than 100 µM throughout. The TGI in the experiment with RXF 393 renal, with SK-MEL-2 melanoma, with SNB-75 CNS and with T-47D breast was more than 100 µM throughout.
For the molecule `C[C@]12CCC(=O)C=C1CC[C@@H]1C2CC[C@]2(C)Nc3c(ncn3-c3ccc(F)cc3)CC12` (some centres not stated), the TGI in the experiment with 786-0 renal was more than 100 µM; in the experiment on A498 renal, more than 100 µM; in the experiment with A549 NSCLC, more than 100 µM; in the experiment with BT-549 breast it was 59.8 µM; in the experiment on HCC-2998 colon it was 88.8 µM; with HT29 colon, more than 100 µM. Moreover, the TGI in the experiment on NCI-H460 lung was found to be 57.4 µM; in the experiment on RXF 393 renal it was 30.6 µM; in the experiment on SNB-75 CNS it was 77.4 µM; in the experiment with T-47D breast, 88.7 µM.
